Active and inactive are the calls of the source. The calls are words filed in the database; no cut-off is given here.

Data set [1] addresses T1, Short transient receptor potential channel 7 (Homo sapiens) (UniProt Q9HCX4).
T1 sequence (whole entry): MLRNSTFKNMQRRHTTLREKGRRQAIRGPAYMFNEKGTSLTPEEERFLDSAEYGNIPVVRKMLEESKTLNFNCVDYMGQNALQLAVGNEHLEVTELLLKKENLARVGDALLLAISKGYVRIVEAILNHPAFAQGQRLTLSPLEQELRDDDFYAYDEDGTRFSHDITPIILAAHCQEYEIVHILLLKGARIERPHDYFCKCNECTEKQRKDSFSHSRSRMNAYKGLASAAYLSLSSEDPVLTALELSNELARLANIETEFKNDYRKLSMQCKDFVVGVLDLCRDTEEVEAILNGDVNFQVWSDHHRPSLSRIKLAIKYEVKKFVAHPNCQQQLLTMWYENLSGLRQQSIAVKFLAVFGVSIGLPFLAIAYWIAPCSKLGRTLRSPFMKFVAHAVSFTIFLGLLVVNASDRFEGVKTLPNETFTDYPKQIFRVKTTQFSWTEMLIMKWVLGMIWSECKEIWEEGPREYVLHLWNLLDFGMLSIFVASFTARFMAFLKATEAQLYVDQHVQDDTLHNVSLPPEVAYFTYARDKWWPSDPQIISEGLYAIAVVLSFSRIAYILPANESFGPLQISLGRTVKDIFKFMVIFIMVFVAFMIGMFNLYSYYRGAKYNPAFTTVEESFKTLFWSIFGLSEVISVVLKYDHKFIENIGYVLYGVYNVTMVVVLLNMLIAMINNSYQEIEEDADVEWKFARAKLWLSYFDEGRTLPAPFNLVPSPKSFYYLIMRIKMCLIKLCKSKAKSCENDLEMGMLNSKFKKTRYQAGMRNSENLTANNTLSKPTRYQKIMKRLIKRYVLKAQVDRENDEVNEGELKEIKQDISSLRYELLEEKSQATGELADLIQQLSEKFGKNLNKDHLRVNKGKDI
Description: Antagonist activity at human TRPC7 expressed in HEK293 cells assessed as inhibition of carbachol-induced activity at 10 uM measured after 48 hrs by Whole-cell patch clamp electrophysiology. The data set is classed as cell-based. On the technique in general: The patch-clamp technique gives a direct electrical read-out from membranes.

For data set [2], the target named is T2, Cytochrome P450 1A2 (Homo sapiens, UniProt P05177).
T2 sequence (P05177 whole entry): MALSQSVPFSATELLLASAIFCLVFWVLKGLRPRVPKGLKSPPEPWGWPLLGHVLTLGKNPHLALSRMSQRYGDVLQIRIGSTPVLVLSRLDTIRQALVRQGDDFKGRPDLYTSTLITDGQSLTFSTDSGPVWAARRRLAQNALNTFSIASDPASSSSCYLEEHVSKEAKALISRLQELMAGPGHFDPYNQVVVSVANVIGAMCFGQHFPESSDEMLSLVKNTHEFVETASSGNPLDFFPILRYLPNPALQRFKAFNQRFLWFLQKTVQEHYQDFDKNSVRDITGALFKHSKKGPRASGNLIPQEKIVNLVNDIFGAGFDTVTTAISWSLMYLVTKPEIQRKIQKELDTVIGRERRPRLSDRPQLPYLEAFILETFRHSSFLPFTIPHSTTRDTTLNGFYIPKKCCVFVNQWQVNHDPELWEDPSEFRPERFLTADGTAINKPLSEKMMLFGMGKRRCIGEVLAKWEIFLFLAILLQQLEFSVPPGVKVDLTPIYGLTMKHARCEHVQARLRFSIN
Description: Inhibition of human liver microsomes CYP1A2 measured after 10 mins incubation by LC-MS analysis. It counts as ADME, Microsome. Background: Liver microsomes are a subcellular fraction often used to study metabolism.

For data set [3], the target named is T3, Short transient receptor potential channel 3 (Homo sapiens) (UniProt Q13507).
T3 sequence (whole entry): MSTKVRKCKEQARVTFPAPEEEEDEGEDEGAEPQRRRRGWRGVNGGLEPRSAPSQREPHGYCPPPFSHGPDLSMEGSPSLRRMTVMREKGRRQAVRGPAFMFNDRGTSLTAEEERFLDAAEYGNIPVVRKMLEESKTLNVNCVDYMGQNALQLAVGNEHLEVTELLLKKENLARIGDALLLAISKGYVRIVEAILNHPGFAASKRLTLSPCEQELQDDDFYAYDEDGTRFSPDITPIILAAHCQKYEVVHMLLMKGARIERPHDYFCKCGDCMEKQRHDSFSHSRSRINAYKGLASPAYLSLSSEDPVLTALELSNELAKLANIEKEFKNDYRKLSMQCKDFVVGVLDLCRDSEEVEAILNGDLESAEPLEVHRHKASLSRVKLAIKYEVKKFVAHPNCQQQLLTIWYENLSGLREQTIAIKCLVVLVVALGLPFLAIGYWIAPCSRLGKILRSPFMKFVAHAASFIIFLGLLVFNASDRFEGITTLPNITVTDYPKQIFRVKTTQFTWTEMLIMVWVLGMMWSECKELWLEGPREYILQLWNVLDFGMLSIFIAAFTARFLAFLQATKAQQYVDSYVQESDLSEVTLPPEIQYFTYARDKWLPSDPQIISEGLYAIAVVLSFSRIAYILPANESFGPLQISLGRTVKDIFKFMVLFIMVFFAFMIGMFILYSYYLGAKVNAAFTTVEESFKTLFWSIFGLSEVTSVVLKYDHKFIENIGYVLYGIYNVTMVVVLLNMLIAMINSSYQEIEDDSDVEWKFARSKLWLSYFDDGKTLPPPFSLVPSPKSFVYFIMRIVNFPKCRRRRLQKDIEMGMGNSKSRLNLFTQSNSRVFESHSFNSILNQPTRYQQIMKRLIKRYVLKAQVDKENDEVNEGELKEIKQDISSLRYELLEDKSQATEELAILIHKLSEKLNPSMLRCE
Description: Antagonist activity at human TRPC3 expressed in HEK293 cells assessed as inhibition of carbachol-induced activity at 10 uM measured after 48 hrs by Whole-cell patch clamp electrophysiology relative to control. The data set is classed as cell-based. The conditions noted are these: filed as antagonist.

In data set [4] the test system is Hippocampal neurone. Description: Rescuing beta-amyloid induced neuronal cell damage in Sprague-Dawley rat primary hippocampal cell culture (composed of 60% primary neuron, 20% microglia and 20% astrocyte) assessed as decrease in soluble oligomeric Abeta-containing media (7PA2 cells) induced astrogliosis (GFAP) at 500 nM by immunostaining analysis. It counts as functional, cell-based.

A short description of data set [5]: Metabolic stability in human liver microsomes assessed as half life measured up to 60 mins by LC-MS/MS analysis. The data set is classed as ADME, Microsome. The following applies: 1 h.
Data set [6] has as its target Cytochrome P450 2C9 (Homo sapiens, UniProt P11712). Nature of the data set: Inhibition of human liver microsomes CYP2C9 measured after 10 mins incubation by LC-MS analysis. The data set is classed as ADME, Microsome.
The subject of data set [7] is Hippocampal neurone. Description: Rescuing beta-amyloid induced neuronal cell damage in Sprague-Dawley rat primary hippocampal cell culture (composed of 60% primary neuron, 20% microglia and 20% astrocyte) assessed as decrease in soluble oligomeric Abeta-containing media (7PA2 cells) induced functional synapses by measuring decrease in SynI clustering level at 100 nM. The data set is classed as cell-based.

Data set [8] concerns the target Short transient receptor potential channel 1 (Mus musculus) (UniProt Q61056). Nature of the data set: Antagonist activity at mouse TRPC1 expressed in HEK293 cells assessed as inhibition of carbachol-induced activity at 10 uM measured after 48 hrs by Whole-cell patch clamp electrophysiology. The data set is classed as cell-based.
Data set [9] can be described thus: Metabolic stability in mouse liver microsomes assessed as half life measured up to 60 mins by LC-MS/MS analysis. The data set is classed as ADME, Microsome. The conditions noted are these: 1 h.
The nature of data set [10]: Cytotoxicity against Sprague-Dawley rat primary hippocampal cells at 100 nM. It counts as toxicity, cell-based. The following applies: hippocampal neurone, 0.1 µM.

Short transient receptor potential channel 1 (Mus musculus), sequence (Q61056 whole entry): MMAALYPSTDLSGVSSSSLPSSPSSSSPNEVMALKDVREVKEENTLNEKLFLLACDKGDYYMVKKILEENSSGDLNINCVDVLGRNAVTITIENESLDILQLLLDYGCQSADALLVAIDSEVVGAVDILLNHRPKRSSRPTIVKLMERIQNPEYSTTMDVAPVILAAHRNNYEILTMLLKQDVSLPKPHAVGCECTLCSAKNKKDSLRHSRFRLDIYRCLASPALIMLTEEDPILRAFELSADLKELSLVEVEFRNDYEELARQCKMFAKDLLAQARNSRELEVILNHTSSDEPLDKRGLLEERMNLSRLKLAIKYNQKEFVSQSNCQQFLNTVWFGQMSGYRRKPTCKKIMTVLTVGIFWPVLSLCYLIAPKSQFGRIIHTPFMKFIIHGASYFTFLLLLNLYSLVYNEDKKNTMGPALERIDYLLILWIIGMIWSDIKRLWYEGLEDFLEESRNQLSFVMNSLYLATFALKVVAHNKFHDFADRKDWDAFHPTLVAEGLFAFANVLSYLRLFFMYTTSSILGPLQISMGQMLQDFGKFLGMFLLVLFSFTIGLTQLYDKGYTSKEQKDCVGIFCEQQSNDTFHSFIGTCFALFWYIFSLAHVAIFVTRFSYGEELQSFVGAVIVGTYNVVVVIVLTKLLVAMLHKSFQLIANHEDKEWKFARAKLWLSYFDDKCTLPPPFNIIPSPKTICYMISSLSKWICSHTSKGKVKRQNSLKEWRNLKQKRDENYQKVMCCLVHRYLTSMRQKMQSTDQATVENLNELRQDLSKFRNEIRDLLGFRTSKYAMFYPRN
Cytochrome P450 2C9, sequence (P11712 whole entry): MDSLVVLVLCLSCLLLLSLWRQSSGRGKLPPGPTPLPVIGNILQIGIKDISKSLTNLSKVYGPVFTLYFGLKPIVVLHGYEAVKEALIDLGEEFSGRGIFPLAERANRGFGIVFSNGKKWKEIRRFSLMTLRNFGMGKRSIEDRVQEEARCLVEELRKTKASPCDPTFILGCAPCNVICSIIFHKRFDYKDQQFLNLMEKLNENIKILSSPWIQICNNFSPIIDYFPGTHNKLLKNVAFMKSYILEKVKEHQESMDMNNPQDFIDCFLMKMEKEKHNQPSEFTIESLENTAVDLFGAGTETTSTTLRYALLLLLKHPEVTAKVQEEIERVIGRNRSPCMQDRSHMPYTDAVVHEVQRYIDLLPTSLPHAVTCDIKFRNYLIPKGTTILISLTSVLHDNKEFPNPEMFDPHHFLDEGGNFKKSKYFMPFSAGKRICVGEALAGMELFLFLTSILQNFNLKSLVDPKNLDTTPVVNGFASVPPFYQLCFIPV

As usually defined, the IC50 is the concentration that inhibits the measured activity by half. In general, inhibition refers to how much of the control response was suppressed. Take `CCNCc1cnn(-c2ccc(-n3ccc(Cl)c(Cl)c3=O)cc2)c1C(F)(F)F`: the outcome in data set [1] and in data set [8] was inactive. The IC50 in data set [2] and in data set [6] was above 50 µM in each case. Moreover, in data set [3], the inhibition was above 97%. The outcome in data set [4] and in data set [7] was Active. Also, the t1/2 worked out at 3.17 h in data set [5] and 0.35 h in data set [9]. Further, the Activity entry in [10] is reported as “Non-toxic”.
